Marks after values point to notes of the source that are not given here.
Assay: Percent purity of PTHrP analogue in coating with varying His-HCl concentration, three storage conditions (HPLC)
Format: physicochemical
Details: peptide 10 mg/mL in PBS
Procedure: The protein or polypeptide content in the formulation coated on the microneedle arrays was determined using an Agilent 1100 HPLC system (Agilent Technologies, Wilmington, Del.) equipped with a binary pump, well-plated thermostated autosampler, thermostated column compartment, and a diode array UV detector. A Zorbax 300SB-C8 column (Agilent Technologies, Wilmington, Del.) having a 5 μm particle size and 2.1×150 mm inner diameter was used for the separations. The column was maintained at 50° C. The mobile phase consisted of two eluents. Eluent A was 0.1% TFA (trifluoroacetic acid) in water and eluent B was 0.1% TFA in acetonitrile (Spectrum Chemical, New Brunswick, N.J.). A linear gradient from 80/20 to 50/50 (A/B) was applied over 30 minutes. The flow rate was 0.4 mL/minute and the UV detection wavelength was set at 214 nm. The total run time was 34 minutes and the sample injection volume was 15 μL.
Five sample formulations were prepared containing 10 mg/mL of [Glu^22,25,Leu^23,28,31,Aib^29,Lys^26,30]hPTHrP(1-34)NH2 and varying concentrations of L-histidine monohydrochloride (His-HCl) in PBS. The concentrations of His-HCl in the sample formulations range from 1 mg/mL to 10 mg/mL. A control formulation was also prepared containing 10 mg/mL of [Glu^22,25,Leu^23,28,31,Aib^29,Lys^26,30]hPTHrP(1-34)NH2 in PBS. […] Microneedle arrays were coated with either the sample or the control formulations. The coating was applied by dropwise addition of 40 μL of the formulation to the portion of the array defined by the octagon shaped pattern of microneedles. The flood coated arrays (both sample and control formulation coated) were dried in an oven at 35° C. for 1.5 hours followed by 30° C. for 15 hours.
After drying, the coated arrays were placed in a storage chamber that was maintained at one of three storage conditions: 40° C./96% RH (storage condition A); 25° C./60% RH (storage condition B); or 5° C./ambient RH. The [Glu^22,25,Leu^23,28,31,Aib^29,Lys^26,30]hPTHrP(1-34)NH2 content of the coated arrays was determined following storage in a chamber for 1 day, 3 days, 7 days, 14 days, 21 days, 28 days, and 2 months. The initial [Glu^22,25,Leu^23,28,31,Aib^29,Lys^26,30]hPTHrP(1-34)NH2 content was also determined using freshly coated arrays (both sample and control formulation coated). The arrays used to determine initial content were stored in a refrigerator at about 4° C. and analyzed within one day of being prepared. At the designated time point, an array was taken from the chamber and washed with PBS (3.5 mL) to remove the coating from the array. An aliquot of the resulting wash solution was analyzed for [Glu^22,25,Leu^23,28,31,Aib^29,Lys^26,30]hPTHrP(1-34)NH2 content using the HPLC method described above. The results were quantified against an external standard of [Glu^22,25,Leu^23,28,31,Aib^29,Lys^26,30]hPTHrP(1-34)NH2. At each time point, the percent purity of [Glu^22,25,Leu^23,28,31,Aib^29,Lys^26,30]hPTHrP(1-34)NH2 in the coating was determined by measuring the peak area for [Glu^22,25,Leu^23,28,31,Aib^29,Lys^26,30]hPTHrP(1-34)NH2 in the selected coating and dividing it by the total peak area measured for all [Glu^22,25,Leu^23,28,31,Aib^29,Lys^26,30]hPTHrP(1-34)NH2 related peaks.

[Glu^22,25,Leu^23,28,31,Aib^29,Lys^26,30]hPTHrP(1-34)NH2
Percent Purity of [Glu^22,25, Leu^23,28,31, Aib^29, Lys^26,30]hPTHrP(1-34)NH2 (Histidine-HCl 1 mg/mL, Storage Condition B (25° C./60% RH), 2 months): 98.1% | Percent Purity of [Glu^22,25, Leu^23,28,31, Aib^29, Lys^26,30]hPTHrP(1-34)NH2 (Histidine-HCl 1 mg/mL, Storage Condition B (25° C./60% RH), Day 3): 98.7% | Percent Purity of [Glu^22,25, Leu^23,28,31, Aib^29, Lys^26,30]hPTHrP(1-34)NH2 (Histidine-HCl 1 mg/mL, Storage Condition B (25° C./60% RH), Day 7): 98.8% | Percent Purity of [Glu^22,25, Leu^23,28,31, Aib^29, Lys^26,30]hPTHrP(1-34)NH2 (Histidine-HCl 1 mg/mL, Storage Condition B (25° C./60% RH), Day 14): 98.7% | Percent Purity of [Glu^22,25, Leu^23,28,31, Aib^29, Lys^26,30]hPTHrP(1-34)NH2 (Histidine-HCl 1 mg/mL, Storage Condition B (25° C./60% RH), Day 28): 98.8% | Percent Purity of [Glu^22,25, Leu^23,28,31, Aib^29, Lys^26,30]hPTHrP(1-34)NH2 (Histidine-HCl 1 mg/mL, Storage Condition B (25° C./60% RH), Initial): 99.0% | Percent Purity of [Glu^22,25, Leu^23,28,31, Aib^29, Lys^26,30]hPTHrP(1-34)NH2 (Histidine-HCl 2 mg/mL, Storage Condition A (40° C./96% RH), Day 1): 98.4% | Percent Purity of [Glu^22,25, Leu^23,28,31, Aib^29, Lys^26,30]hPTHrP(1-34)NH2 (Histidine-HCl 2 mg/mL, Storage Condition A (40° C./96% RH), Day 3): 97.5% | Percent Purity of [Glu^22,25, Leu^23,28,31, Aib^29, Lys^26,30]hPTHrP(1-34)NH2 (Histidine-HCl 2 mg/mL, Storage Condition A (40° C./96% RH), Day 7): 83.2% | Percent Purity of [Glu^22,25, Leu^23,28,31, Aib^29, Lys^26,30]hPTHrP(1-34)NH2 (Histidine-HCl 2 mg/mL, Storage Condition A (40° C./96% RH), Day 14): 50.0% | Percent Purity of [Glu^22,25, Leu^23,28,31, Aib^29, Lys^26,30]hPTHrP(1-34)NH2 (Histidine-HCl 2 mg/mL, Storage Condition A (40° C./96% RH), Day 21, the sample for analysis contained insoluble impurities): 36.8^(a) percent | Percent Purity of [Glu^22,25, Leu^23,28,31, Aib^29, Lys^26,30]hPTHrP(1-34)NH2 (Histidine-HCl 2 mg/mL, Storage Condition A (40° C./96% RH), Initial): 99.0% | Percent Purity of [Glu^22,25, Leu^23,28,31, Aib^29, Lys^26,30]hPTHrP(1-34)NH2 (Histidine-HCl 2 mg/mL, Storage Condition B (25° C./60% RH), 2 months): 98.1% | Percent Purity of [Glu^22,25, Leu^23,28,31, Aib^29, Lys^26,30]hPTHrP(1-34)NH2 (Histidine-HCl 2 mg/mL, Storage Condition B (25° C./60% RH), Day 3): 98.8% | Percent Purity of [Glu^22,25, Leu^23,28,31, Aib^29, Lys^26,30]hPTHrP(1-34)NH2 (Histidine-HCl 2 mg/mL, Storage Condition B (25° C./60% RH), Day 7): 98.8% | Percent Purity of [Glu^22,25, Leu^23,28,31, Aib^29, Lys^26,30]hPTHrP(1-34)NH2 (Histidine-HCl 2 mg/mL, Storage Condition B (25° C./60% RH), Day 14): 98.8% | Percent Purity of [Glu^22,25, Leu^23,28,31, Aib^29, Lys^26,30]hPTHrP(1-34)NH2 (Histidine-HCl 2 mg/mL, Storage Condition B (25° C./60% RH), Day 28): 98.9% | Percent Purity of [Glu^22,25, Leu^23,28,31, Aib^29, Lys^26,30]hPTHrP(1-34)NH2 (Histidine-HCl 2 mg/mL, Storage Condition B (25° C./60% RH), Initial): 99.0% | Percent Purity of [Glu^22,25, Leu^23,28,31, Aib^29, Lys^26,30]hPTHrP(1-34)NH2 (Histidine-HCl 3.3 mg/mL, Storage Condition A (40° C./96% RH), Day 1): 98.6% | Percent Purity of [Glu^22,25, Leu^23,28,31, Aib^29, Lys^26,30]hPTHrP(1-34)NH2 (Histidine-HCl 3.3 mg/mL, Storage Condition A (40° C./96% RH), Day 3): 97.8% | Percent Purity of [Glu^22,25, Leu^23,28,31, Aib^29, Lys^26,30]hPTHrP(1-34)NH2 (Histidine-HCl 3.3 mg/mL, Storage Condition A (40° C./96% RH), Day 7): 93.5% | Percent Purity of [Glu^22,25, Leu^23,28,31, Aib^29, Lys^26,30]hPTHrP(1-34)NH2 (Histidine-HCl 3.3 mg/mL, Storage Condition A (40° C./96% RH), Day 14): 58.3% | Percent Purity of [Glu^22,25, Leu^23,28,31, Aib^29, Lys^26,30]hPTHrP(1-34)NH2 (Histidine-HCl 3.3 mg/mL, Storage Condition A (40° C./96% RH), Day 21, the sample for analysis contained insoluble impurities): 78.2^(a) percent | Percent Purity of [Glu^22,25, Leu^23,28,31, Aib^29, Lys^26,30]hPTHrP(1-34)NH2 (Histidine-HCl 3.3 mg/mL, Storage Condition A (40° C./96% RH), Initial): 99.3% | Percent Purity of [Glu^22,25, Leu^23,28,31, Aib^29, Lys^26,30]hPTHrP(1-34)NH2 (Histidine-HCl 3.3 mg/mL, Storage Condition B (25° C./60% RH), 2 months): 98.5% | Percent Purity of [Glu^22,25, Leu^23,28,31, Aib^29, Lys^26,30]hPTHrP(1-34)NH2 (Histidine-HCl 3.3 mg/mL, Storage Condition B (25° C./60% RH), Day 3): 98.9% | Percent Purity of [Glu^22,25, Leu^23,28,31, Aib^29, Lys^26,30]hPTHrP(1-34)NH2 (Histidine-HCl 3.3 mg/mL, Storage Condition B (25° C./60% RH), Day 7): 98.8% | Percent Purity of [Glu^22,25, Leu^23,28,31, Aib^29, Lys^26,30]hPTHrP(1-34)NH2 (Histidine-HCl 3.3 mg/mL, Storage Condition B (25° C./60% RH), Day 14): 98.9% | Percent Purity of [Glu^22,25, Leu^23,28,31, Aib^29, Lys^26,30]hPTHrP(1-34)NH2 (Histidine-HCl 3.3 mg/mL, Storage Condition B (25° C./60% RH), Day 28): 98.8%

— US10154957B2, “Microneedle device having a peptide therapeutic agent and an amino acid and methods of making and using the same” (3M INNOVATIVE PROPERTIES COMPANY, priority 2011, dated 2018)
